Each structure is given as a SMILES string.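 Following 48 hours of exposure in 96-well plates, responses at five concentrations were used to interpolate endpoints linearly. GI50 marks 50% less growth. At the TGI there is no net growth.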

Results on seven compounds are retold here after PubChem BioAssay (NCI).

Test systems include A498 renal; HOP-62 NSCLC; K-562 leukemia; M14 melanoma; MCF7 breast; MDA-MB-231 breast; OVCAR-8 ovarian; RPMI-8226 leukemia; SF-268 CNS; SK-OV-3 ovarian.
What all share (assay): NCI anticancer screen, dose series, 48 h

Consider `COc1c(Nc2ncc(Cl)c(N[C@@H]3[C@H]4C=CC(C4)[C@@H]3C(N)=O)n2)ccc2c1CC[C@@H](N1CCOCC1)CC2`, for which the GI50 with A498 renal was 1.39 µM; in the assay with HOP-62 NSCLC, 2.08 µM; in the assay on K-562 leukemia, 5.52 µM; with M14 melanoma, 2.14 µM; with MCF7 breast it was 2.01 µM; in the assay on MDA-MB-231 breast, 2.24 µM. The GI50 with OVCAR-8 ovarian is 6.59 µM; in the assay on RPMI-8226 leukemia, 4.28 µM; in the assay with SF-268 CNS, 4.71 µM; in the assay on SK-OV-3 ovarian, 3.43 µM. For the same compound, the TGI in the assay on A498 renal was found to be 4.79 µM; in the assay with HOP-62 NSCLC it was 15 µM; in the assay on K-562 leukemia, 59.7 µM; with M14 melanoma, 12.7 µM; with MCF7 breast, 17.1 µM; with MDA-MB-231 breast it was 9.36 µM. The TGI in the assay on OVCAR-8 ovarian was 29.6 µM; in the assay with RPMI-8226 leukemia, 28.5 µM; in the assay on SF-268 CNS, 20.8 µM; in the assay with SK-OV-3 ovarian, 15.2 µM.
`O=C1OCC2=C1C(c1ccccc1)c1cc3c(cc1N2CCO)CCC3` (stereo not given): the GI50 was 0.0746 µM in the assay on A498 renal; 0.131 µM with HOP-62 NSCLC; 0.0908 µM in the assay on K-562 leukemia; 0.0722 µM with M14 melanoma; 0.0841 µM with MCF7 breast; 0.689 µM in the assay with MDA-MB-231 breast. Besides, the GI50 in the assay on OVCAR-8 ovarian is 0.144 µM; with RPMI-8226 leukemia it was 0.106 µM; in the assay with SF-268 CNS it was 0.0833 µM; in the assay on SK-OV-3 ovarian, 0.097 µM. Moreover, the TGI with A498 renal was 0.657 µM; with HOP-62 NSCLC, greater than 25 µM; with K-562 leukemia, greater than 25 µM; in the assay on M14 melanoma, 0.351 µM; with MCF7 breast it was greater than 25 µM; in the assay with MDA-MB-231 breast, greater than 25 µM. The TGI is greater than 25 µM with OVCAR-8 ovarian, greater than 25 µM in the assay with RPMI-8226 leukemia, 1.51 µM with SF-268 CNS and 8.73 µM with SK-OV-3 ovarian.
`C[C@@]12CCC[C@@](C)(C(=O)O)C1CC[C@]13C=C(CO)[C@](O)(CCC12)C3` (stereo not given in full): the GI50 with A498 renal, in the assay with HOP-62 NSCLC, in the assay with K-562 leukemia, with M14 melanoma, in the assay on MCF7 breast and in the assay on MDA-MB-231 breast was greater than 100 µM throughout. Also, the GI50 with OVCAR-8 ovarian, in the assay with RPMI-8226 leukemia, with SF-268 CNS and in the assay with SK-OV-3 ovarian was greater than 100 µM throughout. For the same compound, the TGI with A498 renal, in the assay with HOP-62 NSCLC, in the assay with K-562 leukemia, in the assay on M14 melanoma, in the assay on MCF7 breast and in the assay with MDA-MB-231 breast was greater than 100 µM throughout. Moreover, the TGI in the assay on OVCAR-8 ovarian, with RPMI-8226 leukemia, with SF-268 CNS and with SK-OV-3 ovarian was greater than 100 µM each time.
Take `O=C(/C=C/c1ccccc1O)c1ccccc1`: the GI50 in the assay on A498 renal was 15.2 µM; in the assay with HOP-62 NSCLC, 17.2 µM; in the assay with K-562 leukemia it was 2.51 µM; with M14 melanoma it was 8.23 µM; in the assay with MCF7 breast, 1.34 µM; in the assay on MDA-MB-231 breast, 12.8 µM. The GI50 in the assay with OVCAR-8 ovarian is 4.39 µM; in the assay on RPMI-8226 leukemia, 2.44 µM; in the assay with SF-268 CNS it was 6.34 µM; in the assay with SK-OV-3 ovarian, 31.5 µM. The TGI was 28.6 µM in the assay with A498 renal; 52.7 µM in the assay with HOP-62 NSCLC; 14.1 µM with K-562 leukemia; 21.4 µM in the assay with M14 melanoma; 5.69 µM with MCF7 breast; 29.9 µM in the assay on MDA-MB-231 breast. In addition, the TGI was 17.7 µM with OVCAR-8 ovarian, 6.68 µM in the assay on RPMI-8226 leukemia, 21.2 µM with SF-268 CNS and greater than 100 µM in the assay on SK-OV-3 ovarian.
For `O=C(Nc1cccc(-n2cc(-c3ccncc3)c(-c3cc(O)cc(Cl)c3)n2)c1)Nc1ccc(Cl)c(Cl)c1`, the GI50 in the assay with A498 renal is 2.09 µM; in the assay on HOP-62 NSCLC it was 2.82 µM; with K-562 leukemia it was 2.56 µM; in the assay on M14 melanoma, 1.44 µM; in the assay on MCF7 breast, 2.8 µM; in the assay on MDA-MB-231 breast, 1.01 µM. In addition, the GI50 in the assay with OVCAR-8 ovarian is 2.02 µM; in the assay on RPMI-8226 leukemia, 1.44 µM; with SF-268 CNS it was 3.22 µM; in the assay with SK-OV-3 ovarian, 3.4 µM. The TGI was 9.06 µM with A498 renal; 8.51 µM in the assay on HOP-62 NSCLC; greater than 100 µM with K-562 leukemia; 3.28 µM in the assay on M14 melanoma; 9.75 µM in the assay with MCF7 breast; 7.7 µM in the assay with MDA-MB-231 breast. In addition, the TGI came to 5.06 µM in the assay on OVCAR-8 ovarian, 4.3 µM with RPMI-8226 leukemia, 32.8 µM in the assay on SF-268 CNS and 9.43 µM with SK-OV-3 ovarian.
For `NC(Cc1cc(Br)c(O)c(Br)c1)C(=O)O` (stereo not given), the TGI in the assay with A498 renal, in the assay on HOP-62 NSCLC, with K-562 leukemia, in the assay on M14 melanoma, in the assay with MCF7 breast and in the assay with MDA-MB-231 breast was greater than 100 µM in each case. The TGI with OVCAR-8 ovarian, in the assay on RPMI-8226 leukemia, in the assay on SF-268 CNS and in the assay on SK-OV-3 ovarian was greater than 100 µM in each case.
As for `S=C(Nc1ccc(-c2nc3ccccc3s2)cc1)Nc1ccccn1`, the GI50 in the assay with A498 renal is 19.8 µM; in the assay with HOP-62 NSCLC it was 44.4 µM; with K-562 leukemia it was 27.6 µM; with M14 melanoma it was 25.2 µM; in the assay on MCF7 breast it was greater than 100 µM; in the assay with MDA-MB-231 breast it was 16.6 µM. Further, the GI50 in the assay with OVCAR-8 ovarian is 32.6 µM; in the assay with RPMI-8226 leukemia it was 33.8 µM; in the assay with SF-268 CNS, 46.6 µM; with SK-OV-3 ovarian, 59.7 µM. Also, the TGI is 44.7 µM with A498 renal; greater than 100 µM in the assay with HOP-62 NSCLC; greater than 100 µM in the assay on K-562 leukemia; 60.9 µM with M14 melanoma; greater than 100 µM with MCF7 breast; 48.3 µM in the assay on MDA-MB-231 breast. The TGI with OVCAR-8 ovarian was greater than 73.9 µM; in the assay with RPMI-8226 leukemia it was greater than 100 µM; in the assay on SF-268 CNS it was greater than 100 µM; in the assay on SK-OV-3 ovarian, greater than 100 µM.
